As a reminder, the melting point is the temperature, or range, at which the solid turns liquid.

16 molecules from patent US6638951B1, “Benzamide derivatives and drugs containing the same” (Hokuriku Seiyaku Co., Ltd., priority 1999, dated 2003) can be followed below.

The structures appear in SMILES notation. Structures can show the parent of a compound that is named as a salt.

In one series the test system is male ferrets. The series can be described thus: Emetic action in ferrets. Particulars: 16 hours fasting, 10 mg/kg p.o., during 2 hours after administration, 8 tested ferrets per compound. The class given is in vivo. Here is the method:
The tested compound of Example 5 was used as a methanesulfonic acid salt, and the following compounds disclosed in Japanese Patent Unexamined Publication No. 5-262724/1993 were used as reference compounds:
Each test compound dissolved in 10% aqueous dimethyl sulfoxide solution was administered to male ferrets, weighing 0.9 to 1.3 kg, and 16 hours fasting, and then the incidence of vomiting was observed during 2 hours after the administration.
`CCCOC(=O)CN1CCC(NC(=O)c2cc(Cl)c(N)cc2OC)CC1` [Example 2, n-Propyl 4-(4-amino-5-chloro-2-methoxybenzamido)-1-piperidineacetate]: the “Number of ferrets showing vomiting” value is recorded as 2.

For the molecule `CCCCOC(=O)CN1CCC(NC(=O)c2cc(Cl)c(N)cc2OC)CC1` [Example 1, n-Butyl 4-(4-amino-5-chloro-2-methoxybenzamido)-1-piperidineacetate], the “Number of ferrets showing vomiting” value turned out to be 0.

Consider `CCCCCCOC(=O)CN1CCC(NC(=O)c2cc(Cl)c(N)cc2OC)CC1` [Example 7, n-Hexyl 4-(4-amino-5-chloro-2-methoxybenzamido)-1-piperidineacetate], for which the “Number of ferrets showing vomiting” value was determined as 1.

As to `CCOC(=O)CN1CCC(NC(=O)c2cc(Cl)c(N)cc2OC)CC1.Cl` [Reference compound 2, Ethyl 4-(4-amino-5-chloro-2-methoxybenzamido)-1-piperidine-acetate hydrochloride, reference compound], the “Number of ferrets showing vomiting” value was 8.

For the molecule `COc1cc(N)c(Cl)cc1C(=O)NC1CCN(CC(=O)OCC(C)C)CC1` [Example 4, Isobutyl 4-(4-amino-5-chloro-2-methoxybenzamido)-1-piperidineacetate], the “Number of ferrets showing vomiting” value was found to be 1.

For `CCCCCOC(=O)CN1CCC(NC(=O)c2cc(Cl)c(N)cc2OC)CC1` [Example 5, n-Pentyl 4-(4-amino-5-chloro-2-methoxybenzamido)-1-piperidineacetate], the “Number of ferrets showing vomiting” value came out at 0.

Take `COc1cc(N)c(Cl)cc1C(=O)NC1CCN(CC(=O)O)CC1.Cl` [Reference compound 1, 4-(4-amino-5-chloro-2-methoxybenzamido)-1-piperidineacetic acid hydrochloride, reference compound]: the “Number of ferrets showing vomiting” value was 0.

System in another series: not given
Experiment: not given
Details: not given
`CCCCOC(=O)CN1CCC(NC(=O)c2cc(Cl)c(N)cc2OC)CC1` (as salt: hydrochloride) [Example 8, n-Butyl 4-(4-amino-5-chloro-2-methoxybenzamido)-1-piperidineacetate] had a melting point of 141 to 144 °C.

In the case of `COc1cc(N)c(Cl)cc1C(=O)NC1CCN(CC(=O)OCC(C)C)CC1` (as salt: methanesulfonate) [Example 4, Isobutyl 4-(4-amino-5-chloro-2-methoxybenzamido)-1-piperidineacetate], the melting point was in the range of 207 to 208 °C.

With `CCCOC(=O)CN1CCC(NC(=O)c2cc(Cl)c(N)cc2OC)CC1` (as salt: methanesulfonate) [Example 2, n-Propyl 4-(4-amino-5-chloro-2-methoxybenzamido)-1-piperidineacetate], the melting point is 209 to 210 °C.

With `CCCCOC(=O)CN1CCC(NC(=O)c2cc(Cl)c(N)cc2OC)CC1` (as salt: methanesulfonate) [Example 1, n-Butyl 4-(4-amino-5-chloro-2-methoxybenzamido)-1-piperidineacetate], the melting point lay in the range of 209 to 211.5 °C.

In turn, `CCCCCCOC(=O)CN1CCC(NC(=O)c2cc(Cl)c(N)cc2OC)CC1` (as salt: hydrochloride) [Example 7, n-Hexyl 4-(4-amino-5-chloro-2-methoxybenzamido)-1-piperidineacetate] came in with a melting point of 133 to 137 °C.

On to `COc1cc(N)c(Cl)cc1C(=O)NC1CCN(CC(=O)OCCC(C)C)CC1` (as salt: methanesulfonate) [Example 6, Isopentyl 4-(4-amino-5-chloro-2-methoxybenzamido)-1-piperidineacetate], for which the melting point lay in the range of 199.5 to 201 °C.

On to `COc1cc(N)c(Cl)cc1C(=O)NC1CCN(CC(=O)OC(C)C)CC1` (as salt: hydrochloride) [Example 3, Isopropyl 4-(4-amino-5-chloro-2-methoxybenzamido)-1-piperidineacetate], for which the melting point fell in the range of 125 to 130 °C.

In the case of `CCCCOC(=O)CN1CCC(NC(=O)c2cc(Cl)c(N)cc2OC)CC1` (as salt: methanesulfonate) [Example 9, n-Butyl 4-(4-amino-5-chloro-2-methoxybenzamido)-1-piperidineacetate], the melting point lay within 111 to 112 °C.

As for `CCCCCOC(=O)CN1CCC(NC(=O)c2cc(Cl)c(N)cc2OC)CC1` (as salt: methanesulfonate) [Example 5, n-Pentyl 4-(4-amino-5-chloro-2-methoxybenzamido)-1-piperidineacetate], the melting point was 202.5 to 203 °C.
